Data: patent US20040024215A1, “Benzamide derivatives and their use as apob-100 and mtp inhibitors” (priority 2000, published 2004)

Experiments:
human MTP = human MTP (Homo sapiens, UniProt P55157); assay: human MTP activity assay (SPA, 3H-triolein transfer between liposomes); assay type: biochemical; conditions: 3H-triolein transfer from donor to acceptor liposomes, 25 min incubation at 37° C., streptavidin-SPA beads
Protocol: The ability of the compounds of this invention to inhibit human MTP activity is measured by an in vitro assay where MTP tranfers 3H-triolein between phosphatidylcholine liposomes. The specificity of the compounds of the invention is established by comparing the effects on apoB-100 and apoprotein A-1 production. A specificity of at least 100 is preferred.
The human MTP activity assay was established using SPA technology. Donor liposomes were prepared with 3H-triolein and phosphatidylcholine, while acceptor liposomes contained biotinylated phosphatidylethanolamine and phosphatidylcholine. The MTP-mediated 3H-triolein transfer onto acceptor liposomes was allowed by a 25 min incubation at 37° C., and quantified by the addition of streptavidin-SPA beads.

human MTP, sequence (P55157 19-894): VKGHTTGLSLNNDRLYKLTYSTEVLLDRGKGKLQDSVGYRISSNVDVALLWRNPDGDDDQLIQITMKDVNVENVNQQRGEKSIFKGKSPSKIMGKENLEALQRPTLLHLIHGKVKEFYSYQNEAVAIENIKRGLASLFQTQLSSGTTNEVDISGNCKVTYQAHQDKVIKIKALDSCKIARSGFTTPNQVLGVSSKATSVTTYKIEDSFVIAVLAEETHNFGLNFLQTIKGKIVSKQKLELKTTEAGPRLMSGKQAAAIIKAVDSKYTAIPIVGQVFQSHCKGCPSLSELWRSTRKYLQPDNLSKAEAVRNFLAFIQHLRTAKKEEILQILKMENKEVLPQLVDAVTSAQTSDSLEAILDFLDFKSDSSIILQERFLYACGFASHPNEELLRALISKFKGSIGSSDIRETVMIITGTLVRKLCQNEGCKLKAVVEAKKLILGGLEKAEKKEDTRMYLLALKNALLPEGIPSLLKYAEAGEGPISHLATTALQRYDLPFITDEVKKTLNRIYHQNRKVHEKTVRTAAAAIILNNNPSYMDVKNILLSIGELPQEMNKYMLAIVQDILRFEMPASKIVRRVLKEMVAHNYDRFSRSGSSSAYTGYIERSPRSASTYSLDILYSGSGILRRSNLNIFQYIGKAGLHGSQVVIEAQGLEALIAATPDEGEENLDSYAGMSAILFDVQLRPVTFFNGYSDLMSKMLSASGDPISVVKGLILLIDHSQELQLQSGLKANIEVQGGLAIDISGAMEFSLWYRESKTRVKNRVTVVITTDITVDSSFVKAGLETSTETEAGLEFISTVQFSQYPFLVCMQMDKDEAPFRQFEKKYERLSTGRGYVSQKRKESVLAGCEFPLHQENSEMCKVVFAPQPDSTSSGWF
human MTP, sequence (P07237 18-508 partner): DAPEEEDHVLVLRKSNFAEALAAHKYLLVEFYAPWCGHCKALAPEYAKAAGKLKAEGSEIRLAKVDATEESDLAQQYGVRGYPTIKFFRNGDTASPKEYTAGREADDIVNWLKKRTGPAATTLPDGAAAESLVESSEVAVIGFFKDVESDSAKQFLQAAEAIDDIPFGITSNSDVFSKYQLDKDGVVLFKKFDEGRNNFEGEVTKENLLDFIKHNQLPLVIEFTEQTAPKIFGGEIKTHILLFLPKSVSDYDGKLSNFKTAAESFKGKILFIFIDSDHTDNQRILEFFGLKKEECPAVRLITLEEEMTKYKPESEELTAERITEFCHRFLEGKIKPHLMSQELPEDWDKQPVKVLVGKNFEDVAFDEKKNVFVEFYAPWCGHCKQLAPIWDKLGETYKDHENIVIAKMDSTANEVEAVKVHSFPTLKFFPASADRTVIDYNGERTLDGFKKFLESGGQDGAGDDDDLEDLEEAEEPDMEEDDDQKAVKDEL

melting point [°C]	IC50 (human MTP) [nM]	SMILES
158 to 160		CC(c1cccc(C(F)(F)F)c1)N1CCN(c2ccc(NC(=O)c3ccccc3-c3ccc(C(F)(F)F)cc3)cc2)CC1 (stereo not drawn) [Example 4, 4′-Trifluoromethyl-biphenyl-2-carboxylic acid [4-(4-(3-trifluoromethyl-α-methyl-benzyl)-piperazin-1-yl)-phenyl]-amide]
194 to 196		CC(c1ccccc1)N1CCN(c2ccc(NC(=O)c3ccccc3-c3ccc(C(F)(F)F)cc3)cc2)CC1 (stereo not drawn) [Example 1, 4′-Trifluoromethyl-biphenyl-2-carboxylic acid [4-(4-(α-methyl-benzyl)-piperazin-1-yl)-phenyl]-amide]
130 to 135	3.2	COC(=O)C(c1ccccc1)N1CCN(c2ccc(NC(=O)c3ccccc3-c3ccc(C(F)(F)F)cc3)cc2)CC1 (stereo not drawn) [Example 11, 4′-Trifluoromethyl-biphenyl-2-carboxylic acid [4-(4-(α-(methoxcyarbonyl)-benzyl)-piperazin-1-yl)-phenyl]-amide]
200 to 202		CC(=O)C(c1ccc(F)cc1)N1CCN(c2ccc(NC(=O)c3ccccc3-c3ccc(C(F)(F)F)cc3)cc2)CC1 (stereo not drawn) [Example 7, 4′-trifluoromethyl-biphenyl-2-carboxylic acid [4-(4-(4-fluoro-α-acetyl-benzyl)-piperazin-1-yl)-phenyl]-amide]
202 to 203		N#Cc1cccc(C(c2ccc[nH]2)N2CCN(c3ccc(NC(=O)c4ccccc4-c4ccc(C(F)(F)F)cc4)cc3)CC2)c1 (stereo not drawn) [Example 17, 4′-Trifluoromethyl-biphenyl-2-carboxylic acid [4-(4-(3-cyano-α-(pyrrol-2-yl)-benzyl)-piperazin-1-yl)-phenyl]-amide]
139 to 141	3	O=C(Nc1ccc(N2CCN(C(C(=O)NCc3ccccn3)c3ccccc3)CC2)cc1)c1ccccc1-c1ccc(C(F)(F)F)cc1 (stereo not drawn) [Example 14, 4′-Trifluoromethyl-biphenyl-2-carboxylic acid [4-(4-(α-((pyridin-2-yl-methyl)-aminocarbonyl)-benzyl)-piperazin-1-yl)-phenyl]-amide]
	5.6	O=C(Nc1ccc(N2CCN(C(c3ccccc3)c3noc(-c4ccccc4)n3)CC2)cc1)c1ccccc1-c1ccc(C(F)(F)F)cc1 (stereo not drawn) [Example 9, 4′-Trifluoromethyl-biphenyl-2-carboxylic acid [4-(4-(α(5-phenyl-[1,2,4]oxadiazol-3-yl)-benzyl)-piperazin-1-yl)-phenyl]-amide]
165	40	O=C(Nc1ccc(N2CCN(C(C(=O)c3ccccc3)c3ccccc3)CC2)cc1)c1ccccc1-c1ccc(C(F)(F)F)cc1 (stereo not drawn) [Example 8, 4′-Trifluoromethyl-biphenyl-2-carboxylic acid [4-(4-(α-benzoyl-benzyl)-piperazin-1-yl)-phenyl]-amide]
192 to 194	1	Cc1ccc(C(=O)Nc2ccc(N3CCN(C(C)c4cccc(C#N)c4)CC3)cc2)c(-c2ccc(C(F)(F)F)cc2)c1 (stereo not drawn) [Example 2, 5-Methyl-4′-trifluoromethyl-biphenyl-2-carboxylic acid [4-(4-(3-cyano-α-methyl-benzyl)-piperazin-1-yl)-phenyl]-amide]
204		N#CC(c1ccccc1)N1CCN(c2ccc(NC(=O)c3ccccc3-c3ccc(C(F)(F)F)cc3)cc2)CC1 (stereo not drawn) [Example 5, 4′-Trifluoromethyl-biphenyl-2-carboxylic acid [4-(4-(α-cyano-benzyl)-piperazin-1-yl)-phenyl]-amide]
	157	O=C(Nc1ccc(N2CCN(C(Cn3cccn3)c3ccccc3)CC2)cc1)c1ccccc1-c1ccc(C(F)(F)F)cc1 (stereo not drawn) [Example 10, 4′-Trifluoromethyl-biphenyl-2-carboxylic acid [4-(4-(α-((pyrazol-1-yl)-methyl)-benzyl)-piperazin-1-yl)-phenyl]-amide]
